Assays:
[1] = tested on: skin atrophy; parameters: method as in PMID 23639214; conditions: healthy subjects; cited from earlier work
[2] = tested on: atopic dermatitis; parameters: method as in PMID 25614148; conditions: atopic dermatitis patients; cited from earlier work
[3] = target: T1, mineralocorticoid receptor (MR) (Homo sapiens, UniProt P08235); assay: MR agonist assay, MR-luciferase reporter cells; format: cell-based; conditions: 24 h incubation; 'in contrast' = unlike LEO 134310, which gave no significant activation
T1 sequence (P08235 1-984): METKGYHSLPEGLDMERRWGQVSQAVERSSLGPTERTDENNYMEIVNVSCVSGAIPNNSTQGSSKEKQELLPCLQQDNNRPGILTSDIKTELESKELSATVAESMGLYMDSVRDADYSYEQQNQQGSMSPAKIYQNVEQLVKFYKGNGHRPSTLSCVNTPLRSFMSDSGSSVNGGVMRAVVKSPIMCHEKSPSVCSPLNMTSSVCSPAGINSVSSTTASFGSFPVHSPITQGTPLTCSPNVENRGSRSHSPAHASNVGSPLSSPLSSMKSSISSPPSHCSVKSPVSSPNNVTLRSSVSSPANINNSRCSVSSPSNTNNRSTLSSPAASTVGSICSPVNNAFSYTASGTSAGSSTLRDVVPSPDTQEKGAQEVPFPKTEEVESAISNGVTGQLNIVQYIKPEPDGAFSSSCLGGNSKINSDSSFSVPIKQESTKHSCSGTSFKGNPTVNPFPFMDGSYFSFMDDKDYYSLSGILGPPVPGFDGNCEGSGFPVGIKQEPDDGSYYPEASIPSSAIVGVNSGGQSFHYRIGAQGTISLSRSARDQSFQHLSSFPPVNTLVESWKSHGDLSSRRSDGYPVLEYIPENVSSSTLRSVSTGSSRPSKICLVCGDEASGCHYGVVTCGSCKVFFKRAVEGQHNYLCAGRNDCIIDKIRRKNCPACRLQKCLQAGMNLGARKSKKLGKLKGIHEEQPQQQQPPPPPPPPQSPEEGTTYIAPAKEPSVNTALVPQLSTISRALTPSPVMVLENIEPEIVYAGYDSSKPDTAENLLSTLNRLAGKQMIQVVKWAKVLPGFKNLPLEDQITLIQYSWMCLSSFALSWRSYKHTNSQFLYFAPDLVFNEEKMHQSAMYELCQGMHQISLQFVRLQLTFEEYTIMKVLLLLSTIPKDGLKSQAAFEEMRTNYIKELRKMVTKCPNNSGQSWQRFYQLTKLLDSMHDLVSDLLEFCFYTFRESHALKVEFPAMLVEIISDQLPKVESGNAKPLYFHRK
Protocol: Assays were performed at Indigo Biosciences according to standard protocols. In brief, MR-luciferase reporter cells were incubated with medium containing charcoal-stripped fetal bovine serum and incubated with test and reference compounds for 24 h before measuring luminescence. Data were fitted by the means of four parameter logistic regression.

[4] = tested on: HPA axis; parameters: method as in PMID 3553247; conditions: topical; cited from earlier work

Structure (SMILES): C[C@@H]1C[C@H]2[C@@H]3C[C@H](F)C4=CC(=O)C=C[C@]4(C)[C@@]3(F)[C@@H](O)C[C@]2(C)[C@@]1(OC(=O)C1C(C)(C)C1(C)C)C(=O)OCC#N [GW870086]
- Induction of skin atrophy [1]: not to induce skin atrophy
- Clinical efficacy [2]: did not achieve significant clinical efficacy

Structure (SMILES): C[C@]12CCC(=O)C=C1CC[C@@H]1[C@@H]2[C@@H](O)C[C@]2(C=O)[C@@H](C(=O)CO)CC[C@@H]12 [aldosterone]
- Activation of MR (luciferase activity) [3]: positive control

Structure (SMILES): CCC(=O)OCC(=O)[C@@]1(OC(=O)CC)[C@@H](C)C[C@H]2[C@@H]3CCC4=CC(=O)C=C[C@]4(C)[C@@]3(F)[C@@H](O)C[C@@]21C [betamethasone dipropionate]
- Effect on morning plasma cortisol [4]: reduce morning plasma cortisol significantly

From PMC8795149, “Characterization of a novel non-steroidal glucocorticoid receptor agonist optimized for topical treatment” (Scientific Reports, 2022)
